Results taken from US20260103474A1, “NOVEL COMPOUNDS FOR THE DIAGNOSIS OF TDP-43 PROTEINOPATHIES” (AC IMMUNE SA, priority 2022, published 2026).

Tests used:
[1] = tested on: AD brain-derived Tau PHF aggregates; test: Micro-radiobinding direct binding on AD brain-derived Tau PHF; parameters: species or system human; conditions: tritiated compound 0.6 to 200 nM
Procedure: The enrichment procedure was modified from Jicha et al, 1997 and Rostagno and Ghiso, 2009. Briefly, around 15 g of the AD human brain were thawed on ice and homogenized with homogenization buffer (3 ml per gram of tissue) (0.75 M NaCl in RAB buffer (100 mM 2-(N-morpholino)ethanesulfonic acid (MES), 1 mM EGTA, 0.5 mM MgSO4, 2 mM DTT, pH 6.8) supplemented with protease inhibitors (Complete; Roche 693124001)) in a glass Dounce homogenizer. […]
(§1) PD brain-derived a-synuclein aggregates and AD brain-derived Tau PHF aggregates were spotted onto microarray slides. […] Quantification of signal was performed by using the image analysis software Beamage (ai4R). Non-specific signal was determined with an excess of non-radiolabelled compound (2 μM) and specific binding was calculated by subtracting the non-specific signal from the total signal. Competition was calculated as percentage, where 0% was defined as the specific binding in the presence of vehicle and 100% as the values obtained in the presence of excess of the non-radiolabelled a-syn reference compound. Ki values were calculated in GraphPad Prism7 by applying a nonlinear regression curve fit using a one site, specific binding model. […]

[2] = biological target: T1, PD brain-derived a-synuclein aggregates (Homo sapiens, UniProt P37840); test: Micro-radiobinding competition assay against a-syn reference on PD brain-derived insoluble fraction; format: binding; conditions: against [3H]-reference a-syn compound
T1 construct: from tissue; host or cells: frozen brain tissue of PD donors, 1% sarkosyl-insoluble pellet
Procedure: The procedure was adapted from the protocol described in Spillantini et al., 1998. Frozen tissue blocks from PD donors were thawed on ice and homogenized using a glass dounce homogenizer. The homogenate was then centrifuged at 11,000×g (12,700 RPM) in an ultracentrifuge (Beckman, XL100K) for 20 minutes at 4° C. using a pre-cooled 70.1 rotor (Beckman, 342184). Pellets were resuspended in extraction buffer [10 mM Tris-HCl pH 7.4, 10% sucrose, […], 1% protease inhibitor (Calbiochem 539131), 1 mM EGTA, 1% phosphatase inhibitor (Sigma P5726 and P0044)] and centrifuged at 15,000×g (14,800 RPM, a 70.1 Ti rotor) for 20 minutes at 4° C. […]
as §1

Row | Direct binding in AD brain-derived Tau PHF aggregates [1] | Compound | Ki [2]
1 | No significant binding | [3H]C([3H])(O)C1CCN(c2ccc(-c3nc4c(s3)C(=O)N(c3cccnc3)CC4)c(F)n2)CC1 [[^3H]-Compound 17, 2-(2-fluoro-6-(4-(hydroxymethyl-t2)piperidin-1-yl)pyridin-3-yl)-5-(pyridin-3-yl)-6,7-dihydrothiazolo[5,4-c]pyridin-4(5H)-one] | 
2 | No significant binding | [3H]c1cncc(N2CCc3nc(-c4cc([3H])c(N5CC[C@@H](F)C5)nc4F)sc3C2=O)c1 [[^3H]-Compound 1, tritiated 2-[2-fluoro-6-[(3R)-3-fluoropyrrolidin-1-yl]-3-pyridyl]-5-(3-pyridyl)-6,7-dihydrothiazolo[5,4-c]pyridin-4-one] | 
3 |  | O=C1c2sc(-c3ccc(N4CC[C@@H](F)C4)nc3F)nc2CCN1c1cccnc1 [Compound 1, 2-[2-fluoro-6-[(3R)-3-fluoropyrrolidin-1-yl]-3-pyridyl]-5-(3-pyridyl)-6,7-dihydrothiazolo[5,4-c]pyridin-4-one] | > 0.5 µM
